# Assay results: patent US6761922B2, “Sweetener compositions containing aspartyl dipeptide ester compounds” (Ajinomoto Co., Inc., priority 1999, dated 2004)
# Where two headings read alike, the source gives them in different places. Where a SMILES comes first, the peptide text is derived from it.
# Columns and labels:
# [1] = Magnification of sweetness intensity stated or used for calculating the sweetness of compositions; details: for magnification of sweetness intensity of the derivative as stated for the formulation: value used as basis of calculation, vs sucrose
# [2] = Measurement of the magnification of sweetness intensity in cola beverage (sensory evaluation against cola with sucrose); format: in vivo; details: control cola beverage containing 10% sucrose
# Text: (§1) The sweetness intensity of the solution of derivative 2 was 8.75% according to the following equation: (10.0−8.33)×0.25+8.33=8.75. Therefore, the magnification of sweetness of derivative 2 was 5600 (=8.75/0.00155) times that of sucrose. According to the same experiment, the magnification of sweetness intensity of derivative 1 was 22600 times that of sucrose. Further, the magnification of sweetness intensity of other derivatives (3 to 9) can be determined in the same manner. And the magnification of sweetness intensity in a cola beverage can be also determined by the same method compared to the control solution of cola beverage containing 10% sucrose.
# Incidentally, the composition of cola beverage is as follows.
# Incidentally, as for the concentration of the references, the sucrose concentrations of previous (a) to (e) were used.
# [3] = Measurement of the magnification of sweetness intensity in aqueous solution (sensory evaluation against sucrose solutions); format: in vivo; details: for magnification of sweetness intensity, times that of sucrose: aqueous solution, PSE 10% concentration, 20 panelists
# Description: [Method for Determining the Magnification of Sweetness Intensity]
# An aqueous solution was prepared by diluting derivative 2 to be PSE 10% concentration (15.5 mg/1000 ml=10/6500 g/100 ml), assuming that the intensity of sweetness of derivative 2 was 6500 times that of sucrose. Separately, aqueous sucrose solutions having sucrose concentrations of (a)6.94%, (b)8.33%, (c)10%, (d)12%, and (e)14.4% were prepared. The sensory evaluation was performed by determining which sucrose solution was closest to the solution of derivative 2 in the sweetness intensity. The result of calculation of the average of points of 20 panelists was 2.25 point.
# as §1
# Solubility = format: physicochemical; details: 25° C.
# [4] = Rate of dissolving and dispersibility of granular products in water; format: physicochemical; details: crude powder in hot water; insoluble coagulates formed
# Description: *1: As for the rate of dissolving, the distilled water was poured in the 500 ml beaker, 1 g of sample was added to the beaker with gentle mixing by magnetic stirring, and the time of dissolving was measured.
# [5] = cited from earlier work; for sweetness intensity, times that of sucrose by weight: reported in prior publications
# [6] = Sensory evaluation in coffee against 4% sucrose coffee, after production and after storage; format: in vivo; details: 60 days at room temperature, judged from sweetness
# Text: And, the sweetener composition in the form of suspension was poured into the sealed container and stood still at room temperature for 60 days.
# [7] = Standing test of suspension at room temperature (precipitation); format: physicochemical; details: 1.0 weight part in 70 weight parts of water, homogenized, 7 days
# [8] = Time required to dissolve completely in 500 ml of water with stirring; format: physicochemical; details: 0.0234 g of powder in 500 ml of water, 25° C., 200 rpm
# Description: When 50 g of the suspension of the derivative (derivative content 0.0234 g) were added to 500 ml of water (25° C.) with stirring (200 rpm), and the time required to dissolve completely was measured, it took 50 seconds. When 0.0234 g of the powder of the derivative 1, as a reference product, were added to 500 ml of water (25° C.) with stirring (200 rpm) in the same way, and the time required to dissolve completely was measured, it took not less than 3 minutes.
# [9] = value used as basis of calculation, vs sucrose; cited from earlier work
structure (smiles),measurement,setting,value
OC[C@@H](O)[C@@H](O)CO [Erythritol],magnification of sweetness intensity at PSE 0.5%,[1]; was calculated as,0.75 times
"COC(=O)[C@H](Cc1ccccc1)NC(=O)[C@H](CC(=O)O)NCCCc1ccc(O)cc1O [Derivative 9, N-[N-[3-(2,4-dihydroxyphenyl)propyl]-L-α-aspartyl]-L-phenylalanine 1-methyl ester]","Magnification of sweetness intensity relative to sucrose, in cola beverage",[2],7500
same,"Magnification of sweetness intensity relative to sucrose, in aqueous solution",[3],8000
"COC(=O)[C@H](Cc1ccccc1)NC(=O)[C@H](CC(=O)O)NCCC(C)(C)c1ccc(OC)cc1 [Derivative 5, N-[N-[3-(4-methoxyphenyl)-3-methylbutyl]-L-α-aspartyl]-L-phenylalanine 1-methyl ester]","Magnification of sweetness intensity relative to sucrose, in cola beverage",[2],8000
same,"Magnification of sweetness intensity relative to sucrose, in aqueous solution",[3],8400
"COC(=O)[C@H](Cc1ccccc1)NC(=O)[C@H](CC(=O)O)NCCCc1ccc(OC)cc1 [Derivative 2, N-[N-[3-(4-methoxyphenyl)propyl]-L-α-aspartyl]-L-phenylalanine 1-methyl ester]",solubility in water,Solubility,0.009 g/100 ml
same,magnification of sweetness intensity of the derivative as stated for the formulation,[1],5000 times
same,Magnification of sweetness intensity (vs. sucrose),[1]; value used for Example 9 suspension,5000
same,"Magnification of sweetness intensity relative to sucrose, in cola beverage",[2],4900
same,sweetness intensity of the solution (sucrose equivalent),[3]; 15.5 mg/1000 ml aqueous solution,8.75%
same,"magnification of sweetness intensity, times that of sucrose",[3],5600 times
same,"Magnification of sweetness intensity relative to sucrose, in aqueous solution",[3],5500
same,time without reaching complete dissolution,[4],> 5 min
"COC(=O)[C@H](Cc1ccccc1)NC(=O)[C@H](CC(=O)O)NCCCc1ccc(O)c(C)c1 [Derivative 8, N-[N-[3-(3-methyl-4-hydroxyphenyl)propyl]-L-α-aspartyl]-L-phenylalanine 1-methyl ester]","Magnification of sweetness intensity relative to sucrose, in cola beverage",[2],15800
same,"Magnification of sweetness intensity relative to sucrose, in aqueous solution",[3],18200
"COC(=O)[C@H](Cc1ccccc1)NC(=O)[C@H](CC(=O)O)NCCCc1ccc(OC)cc1O [Derivative 7, N-[N-[3-(2-hydroxy-4-methoxyphenyl)propyl]-L-α-aspartyl]-L-phenylalanine 1-methyl ester]","Magnification of sweetness intensity relative to sucrose, in cola beverage",[2],10600
same,"Magnification of sweetness intensity relative to sucrose, in aqueous solution",[3],11100
"COC(=O)[C@H](Cc1ccccc1)NC(=O)[C@H](CC(=O)O)NCCC(C)(C)c1ccc(O)c(C)c1 [Derivative 4, N-[N-[3-(3-methyl-4-hydroxyphenyl)-3-methylbutyl]-L-α-aspartyl]-L-phenyl alanine 1-methyl ester]","Magnification of sweetness intensity relative to sucrose, in cola beverage",[2],29600
same,"Magnification of sweetness intensity relative to sucrose, in aqueous solution",[3],43500
COC(=O)[C@H](Cc1ccccc1)NC(=O)[C@H](CC(=O)O)NCCC(C)(C)C [Neotame],"sweetness intensity, times that of sucrose by weight",[5],10000 times
"COC(=O)[C@H](Cc1ccccc1)NC(=O)[C@H](CC(=O)O)NCCCc1ccc(OC)c(O)c1 [Derivative 1, N-[N-[3-(3-hydroxy-4-methoxyphenyl)propyl]-L-α-aspartyl]-L-phenylalanine 1-methyl ester]","solubility against isomerised sugar ""Fujikraft""",Solubility,0.035 g/100 ml
same,solubility in water,Solubility,0.152 g/100 ml
same,magnification of sweetness intensity at PSE 4%,"[1]; at PSE 4%, was calculated as",18500 times
same,magnification of sweetness intensity of the derivative as stated for the formulation,[1],22600 times
same,"Magnification of sweetness intensity relative to sucrose, in cola beverage",[2],22600
same,"magnification of sweetness intensity, times that of sucrose",[3],22600 times
same,"Magnification of sweetness intensity relative to sucrose, in aqueous solution",[3],22600
same,stability of the derivative in the suspension,[6],not decomposed
same,precipitation on standing,[7],all suspended substances were precipitated
same,time required to dissolve completely,[8],not less than 3 minutes
"COC(=O)[C@H](Cc1ccccc1)NC(=O)[C@H](CC(=O)O)NCCC(C)(C)c1ccc(O)cc1 [Derivative 6, N-[N-[3-(4-hydroxyphenyl)-3-methylbutyl]-L-α-aspartyl]-L-phenylalanine 1-methyl ester]",magnification of sweetness intensity of the derivative as stated for the formulation,[1],14000 times
same,"Magnification of sweetness intensity relative to sucrose, in cola beverage",[2],14000
same,"Magnification of sweetness intensity relative to sucrose, in aqueous solution",[3],14900
COC(=O)[C@H](Cc1ccccc1)NC(=O)[C@@H](N)CC(=O)O [Aspartame] (H-Asp-Phe-OMe),Magnification of sweetness intensity (vs. sucrose),[5]; reference sweetener in Example 9,200
same,"sweetness intensity, times that of sucrose by weight",[5],200 times
same,magnification of sweetness intensity at PSE 0.5%,[1]; was calculated as,360 times
OC[C@@H](O)[C@@H](O[C@H]1O[C@H](CO)[C@@H](O)[C@H](O)[C@H]1O)[C@H](O)[C@@H](O)CO [maltitole],magnification of sweetness intensity of filler used for calculation,[9],0.75
OC[C@H]1O[C@@H](O[C@H]2[C@H](O)[C@@H](O)C(O)O[C@@H]2CO)[C@H](O)[C@@H](O)[C@H]1O (stereo partly shown) [lactose],magnification of sweetness intensity of filler used for calculation,[9],0.2
"COC(=O)[C@H](Cc1ccccc1)NC(=O)[C@H](CC(=O)O)NCCC(C)(C)c1ccc(OC)c(O)c1 [Derivative 3, N-[N-[3-(3-hydroxy-4-methoxyphenyl)-3-methylbutyl]-L-α-aspartyl]-L-phenylalanine 1-methyl ester]","Magnification of sweetness intensity relative to sucrose, in cola beverage",[2],37000
same,"Magnification of sweetness intensity relative to sucrose, in aqueous solution",[3],42400
